Columns and labels:
[1] = tested on: Arabidopsis thaliana plants (col-0); assay: Discontinuous chlorophyll fluorescence imaging of ΦII with red actinic light after coronatine spraying; type: in vivo; conditions: 5 μM sprayed, monochromatic (red) actinic light, 1, 4, 8 and 24 hours after treatment
Protocol: Arabidopsis thaliana plants (col-0) were grown on soil at 22° C. day temperature and 18° C. night temperature, 50% humidity and an intensity of μmol photons m^−2 s^−1 with an 16:8 day:night cycle. Chlorophyll a fluorescence images of steady state (FS) and the fluorescence maximum at steady state (FM′) were collected at growth light intensity and in the absence or presence of saturating illumination, respectively. These images were used to generate images of ΦII, a measure of photosynthetic efficiency on the day of and after treatment (by spraying) with 5 μM coronatine (cor) or water (control). Coronatine is a compound produced by a bacterial plant pathogen. As a chemical analog of jasmonic acid, it elicits a stress response, which includes differential induction and repression of classes of photosynthesis associated genes (PAGs). […] For discontinuous imaging, plants were maintained in the growth chamber where they were treated and transferred to and from the fluorescence imager for measurements. For in situ imaging, the plants were allowed to readjust after transfer to the new chamber with white LED lighting for at least 24 hours prior to treatment and were kept in the chamber for the duration of experiment.

[2] = tested on: Arabidopsis thaliana plants (col-0); assay: Continuous in situ chlorophyll fluorescence imaging of ΦII with white actinic LED after coronatine spraying; type: in vivo; conditions: 5 μM sprayed
Protocol: Arabidopsis thaliana plants (col-0) were grown on soil at 22° C. day temperature and 18° C. night temperature, 50% humidity and an intensity of μmol photons m^−2 s^−1 with an 16:8 day:night cycle. Chlorophyll a fluorescence images of steady state (FS) and the fluorescence maximum at steady state (FM′) were collected at growth light intensity and in the absence or presence of saturating illumination, respectively. These images were used to generate images of ΦII, a measure of photosynthetic efficiency on the day of and after treatment (by spraying) with 5 μM coronatine (cor) or water (control). Coronatine is a compound produced by a bacterial plant pathogen. As a chemical analog of jasmonic acid, it elicits a stress response, which includes differential induction and repression of classes of photosynthesis associated genes (PAGs). To determine if there were immediate and/or sustained effects on photosynthesis, imaging was performed discontinuously in an imager that used monochromatic (red) actinic light or continuously in situ in a growth chamber outfitted with a white actinic LED imaging system. For discontinuous imaging, plants were maintained in the growth chamber where they were treated and transferred to and from the fluorescence imager for measurements. For in situ imaging, the plants were allowed to readjust after transfer to the new chamber with white LED lighting for at least 24 hours prior to treatment and were kept in the chamber for the duration of experiment.
Imaging in situ with white LED actinic illumination minimized the stress of moving a plant from its growth environment to the instrument and with automated image capture facilitated collection of data at higher time resolution (FIG. 10). […] The effect is also heterogeneous, more strongly observed in some leaves or not occurring at all in other (younger) leaves.

For `CC[C@H]1C=C(C(=O)N[C@@]2(C(=O)O)C[C@@H]2CC)[C@H]2CCC(=O)[C@H]2C1` [coronatine], the “ΦII (photosynthetic efficiency), treated vs untreated plants” value [1] was “no differences between treated and untreated plants”, the “photosynthetic efficiency (ΦII) effect” value ([2]; in situ imaging, second day after treatment (more recent studies, not shown)) was “the effect was not observed” and the “photosynthetic efficiency (ΦII)” value ([2]; white LED in situ imaging, early morning on the day after treatment (21 hours)) was “large decrease in photosynthetic efficiency”. The “photosynthetic efficiency (ΦII) effect” value ([2]; white LED in situ imaging, mid-morning on the day after treatment (25 hours)) was “almost completely disappears”.

Reference: US9429521B2, “Plant phenometrics systems and methods and devices related thereto” (BOARD OF TRUSTEES OF MICHIGAN STATE UNIVERSITY, priority 2012, dated 2016)
